Assay results from patent US11945822B2, “Pyrazolo-triazine and/or pyrazolo-pxrimidine derivatives as selective inhibitor of cyclin dependent kinase” (QURIENT CO., LTD., priority 2018, dated 2024).

Legend:
[1] = molecular target: T1, CDK5/p25 (Homo sapiens, UniProt Q00535); test: Enzymatic assay for CDK5 (FRET based LANCE Ultra kinase assay); type: biochemical; conditions: read-out: CDK5 enzymatic activity (IC50 range)
T1 construct: purchased Invitrogen PR8543B
In short: (§1)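 Each CDK complex ([…]) phosphorylated 68 nM ULight-MBP peptide with ATP at Km for 60 min at 23° C., against 8 compound doses (4-fold dilutions). EDTA/Eu-anti-phospho-MBP detection, 60 min, then TR-FRET emission at 615 and 665 nm.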

[2] = molecular target: T2, CDK1/Cyclin B (Homo sapiens, UniProt P06493); test: Enzymatic assay for CDK1 (FRET based LANCE Ultra kinase assay); type: biochemical; conditions: read-out: CDK1 enzymatic activity (IC50 range)
T2 construct: purchased Invitrogen PR4768C
T2 sequence (P06493 whole entry): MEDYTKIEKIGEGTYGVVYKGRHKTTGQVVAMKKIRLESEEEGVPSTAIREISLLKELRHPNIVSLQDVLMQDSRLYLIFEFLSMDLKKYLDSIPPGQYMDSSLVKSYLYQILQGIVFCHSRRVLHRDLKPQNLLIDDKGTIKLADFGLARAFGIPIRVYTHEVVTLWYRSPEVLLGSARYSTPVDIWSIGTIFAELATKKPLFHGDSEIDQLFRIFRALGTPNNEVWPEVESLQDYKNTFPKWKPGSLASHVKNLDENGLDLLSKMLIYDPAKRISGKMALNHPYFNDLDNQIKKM
T2 sequence (P14635 whole entry partner): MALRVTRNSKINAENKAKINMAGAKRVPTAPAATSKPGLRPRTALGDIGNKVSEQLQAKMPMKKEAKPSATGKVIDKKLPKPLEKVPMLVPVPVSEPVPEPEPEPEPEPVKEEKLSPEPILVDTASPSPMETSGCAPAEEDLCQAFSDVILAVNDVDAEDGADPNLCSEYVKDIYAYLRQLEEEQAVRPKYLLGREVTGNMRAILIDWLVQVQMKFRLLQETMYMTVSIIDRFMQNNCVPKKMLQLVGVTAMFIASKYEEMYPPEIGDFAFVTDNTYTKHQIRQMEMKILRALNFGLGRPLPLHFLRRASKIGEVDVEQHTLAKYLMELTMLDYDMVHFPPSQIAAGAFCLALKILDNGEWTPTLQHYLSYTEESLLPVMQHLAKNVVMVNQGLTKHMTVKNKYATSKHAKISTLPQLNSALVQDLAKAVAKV
In short: as §1

[3] = tested on: RPMI-8226; test: Cellular RPMI-8226 viability assay (CellTiter-Glo, 72 hours); type: cell-based; conditions: Homo sapiens
Description: All cell lines were routinely tested for mycoplasma.
The effect of the CDK7 inhibitor to inhibit the growth of target cancer cells was evaluated through the 72 hours time period of viability assay. Briefly, the candidate cell line ware plated in 96 well plate at the following density of cells respectively. […] DMSO solvent without compound served as a control and final DMSO concentration less than 0.1%. After 72 hours of incubation at 37° C., 5% CO2 incubator, cells were analyzed for the viability using the CellTiter-Glo Luminescent Cell Viability Assay (Promega, Cat #G7570). All viability assays were performed in duplicate and Luminescence was read using an Envision (Perkin Elmer, USA). Data was analyzed using XLfit software.

[4] = molecular target: T3, CDK2/Cyclin A (Homo sapiens, UniProt P24941); test: Enzymatic assay for CDK2 (FRET based LANCE Ultra kinase assay); type: biochemical; conditions: read-out: CDK2 enzymatic activity (IC50 range)
T3 construct: purchased Invitrogen PV6290
In short: as §1

[5] = tested on: H460; test: Cellular H460 viability assay (CellTiter-Glo, 72 hours); type: cell-based; conditions: Homo sapiens, NCI-H460
In short: (§2)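 Growth inhibition is assessed over a 72-hour incubation at 37 °C in 5% CO2, relative to DMSO vehicle (final concentration less than 0.1%). Luminescence from CellTiter-Glo serves as the viability signal.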

[6] = molecular target: T4, CDK7/Cyclin H/MNAT1 (Homo sapiens, UniProt P50613); test: Enzymatic assay for CDK7 (FRET based LANCE Ultra kinase assay); type: biochemical; conditions: for IC50: read-out: CDK7 enzymatic activity (IC50 range)
T4 construct: purchased Invitrogen PR6749B
T4 sequence (P50613 whole entry): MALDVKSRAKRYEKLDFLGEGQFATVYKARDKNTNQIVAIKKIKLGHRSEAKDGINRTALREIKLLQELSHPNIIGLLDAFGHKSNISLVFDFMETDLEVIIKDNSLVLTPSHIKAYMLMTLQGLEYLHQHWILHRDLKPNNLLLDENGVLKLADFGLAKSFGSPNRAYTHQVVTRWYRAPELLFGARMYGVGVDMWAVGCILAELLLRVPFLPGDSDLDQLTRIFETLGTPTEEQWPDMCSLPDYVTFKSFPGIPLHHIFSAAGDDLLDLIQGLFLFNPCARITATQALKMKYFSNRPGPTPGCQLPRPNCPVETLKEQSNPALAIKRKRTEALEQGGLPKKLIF
T4 sequence (P51946 whole entry partner): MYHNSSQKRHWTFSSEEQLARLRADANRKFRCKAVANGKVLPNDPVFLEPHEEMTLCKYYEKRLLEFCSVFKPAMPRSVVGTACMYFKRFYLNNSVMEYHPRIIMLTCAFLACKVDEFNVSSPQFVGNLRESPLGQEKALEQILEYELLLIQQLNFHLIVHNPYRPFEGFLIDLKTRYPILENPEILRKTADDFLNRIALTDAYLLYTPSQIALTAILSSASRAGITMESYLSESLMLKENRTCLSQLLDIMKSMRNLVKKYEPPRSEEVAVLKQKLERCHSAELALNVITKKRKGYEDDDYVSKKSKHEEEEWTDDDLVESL
T4 sequence (P51948 whole entry partner): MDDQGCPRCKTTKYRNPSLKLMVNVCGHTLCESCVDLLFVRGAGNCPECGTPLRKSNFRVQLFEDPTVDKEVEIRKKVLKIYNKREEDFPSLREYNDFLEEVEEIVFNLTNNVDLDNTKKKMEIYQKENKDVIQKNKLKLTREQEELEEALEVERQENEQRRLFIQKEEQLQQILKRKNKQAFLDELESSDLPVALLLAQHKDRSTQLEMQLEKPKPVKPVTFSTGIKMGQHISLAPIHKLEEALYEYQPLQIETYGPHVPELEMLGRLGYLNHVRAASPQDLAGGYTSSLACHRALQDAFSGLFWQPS
In short: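 Inhibition was measured at Km ATP by time-resolved FRET between a Eu anti-phospho antibody and a phosphorylated ULight peptide. The enzyme was the purified CDK7/cyclin complex, and data were curve-fitted.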

[7] = tested on: MV4-11; test: Cellular MV4-11 viability assay (CellTiter-Glo, 72 hours); type: cell-based; conditions: Homo sapiens
In short: as §2

T1 sequence (Q00535 whole entry): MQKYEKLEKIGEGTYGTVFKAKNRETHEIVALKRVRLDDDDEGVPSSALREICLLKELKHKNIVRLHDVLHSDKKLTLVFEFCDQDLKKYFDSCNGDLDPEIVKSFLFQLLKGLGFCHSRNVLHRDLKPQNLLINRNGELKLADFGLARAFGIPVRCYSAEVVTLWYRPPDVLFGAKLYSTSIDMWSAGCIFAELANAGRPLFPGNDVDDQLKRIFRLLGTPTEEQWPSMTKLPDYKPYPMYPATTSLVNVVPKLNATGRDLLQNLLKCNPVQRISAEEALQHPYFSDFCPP
T1 sequence (Q15078 99-307 partner limits assumed): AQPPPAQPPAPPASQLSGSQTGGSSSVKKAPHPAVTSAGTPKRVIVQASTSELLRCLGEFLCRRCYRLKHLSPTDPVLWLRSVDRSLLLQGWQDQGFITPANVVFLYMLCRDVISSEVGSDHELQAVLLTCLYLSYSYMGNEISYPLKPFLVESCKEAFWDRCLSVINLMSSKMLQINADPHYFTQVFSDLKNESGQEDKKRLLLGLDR

| Structure (SMILES) | IC50 [1] | IC50 [2] | IC50 [3] | IC50 [4] | IC50 [5] | CDK1/CDK7: Selectivity of CDK7 inhibition over CDK1 inhibition [6] | CDK2/CDK7: Selectivity of CDK7 inhibition over CDK2 inhibition [6] | CDK5/CDK7: Selectivity of CDK7 inhibition over CDK5 inhibition [6] | IC50 [6] | IC50 [7] |
| --- | --- | --- | --- | --- | --- | --- | --- | --- | --- | --- |
| CC(C)c1cnn2c(NCc3ccccc3N3CC4CCCCC4C3)nc(N3CCC(N)CC3)nc12 (centres unmarked) [Compound 135] | > 1 µM | > 1 µM | 1 to 10 µM | > 1 µM | 1 to 10 µM | A (A=greater than 200 fold) | B (B=less than 200 fold, but greater than 20 fold) | B (B=less than 200 fold, but greater than 20 fold) | < 0.1 µM | – |
| CC(C)c1cnn2c(NCc3ccccc3-c3ccc4[nH]cnc4c3)nc(N3CCC(N)CC3)nc12 [Compound 123] | < 0.1 µM | 0.1 to 1 µM | < 1 µM | 0.1 to 1 µM | < 1 µM | B (B=less than 200 fold, but greater than 20 fold) | B (B=less than 200 fold, but greater than 20 fold) | C (C=less than 20 fold) | < 0.1 µM | < 1 µM |
| CC(C)c1cnn2c(NCc3ccccc3-c3[nH]c4ccccc4c3Cl)nc(N3CCC(N)CC3)nc12 [Compound 119] | 0.1 to 1 µM | > 1 µM | 1 to 10 µM | 0.1 to 1 µM | < 1 µM | A (A=greater than 200 fold) | B (B=less than 200 fold, but greater than 20 fold) | B (B=less than 200 fold, but greater than 20 fold) | < 0.1 µM | 1 to 10 µM |
| CC(C)c1cnn2c(NCc3ccccc3-c3ccc4[nH]ncc4c3)nc(N3CCC(N)CC3)nc12 [Compound 137] | < 0.1 µM | 0.1 to 1 µM | < 1 µM | < 0.1 µM | < 1 µM | C (C=less than 20 fold) | C (C=less than 20 fold) | C (C=less than 20 fold) | < 0.1 µM | – |
| CC(C)c1cnn2c(NCc3ccccc3-c3ccc4[nH]c(NC(=O)C5CC5)nc4c3)nc(N3CCC(N)CC3)nc12 [Compound 141] | < 0.1 µM | 0.1 to 1 µM | < 1 µM | 0.1 to 1 µM | 1 to 10 µM | B (B=less than 200 fold, but greater than 20 fold) | B (B=less than 200 fold, but greater than 20 fold) | C (C=less than 20 fold) | < 0.1 µM | – |
| CC(C)c1cnn2c(NCc3ccccc3-c3ccc4c(c3)CC(=O)N4)nc(N3CCC(N)CC3)nc12 [Compound 17] | 0.1 to 1 µM | > 1 µM | 1 to 10 µM | 0.1 to 1 µM | 1 to 10 µM | B (B=less than 200 fold, but greater than 20 fold) | B (B=less than 200 fold, but greater than 20 fold) | C (C=less than 20 fold) | < 0.1 µM | – |
| CC(C)c1cnn2c(NCc3ccccc3N3Cc4ccccc4C3)nc(N3CCC(N)CC3)nc12 [Compound 128] | < 0.1 µM | 0.1 to 1 µM | < 1 µM | 0.1 to 1 µM | < 1 µM | B (B=less than 200 fold, but greater than 20 fold) | B (B=less than 200 fold, but greater than 20 fold) | C (C=less than 20 fold) | < 0.1 µM | < 1 µM |
| CC(C)c1cnn2c(NCc3ccccc3-n3cc4cc(C#N)ccc4n3)nc(N3CCC(N)CC3)nc12 [Compound 120] | 0.1 to 1 µM | > 1 µM | < 1 µM | 0.1 to 1 µM | < 1 µM | A (A=greater than 200 fold) | A (A=greater than 200 fold) | B (B=less than 200 fold, but greater than 20 fold) | < 0.1 µM | < 1 µM |
| CC(C)c1cnn2c(NCc3ccccc3-c3ccc4c(c3)NC(=O)C(C)(C)O4)nc(N3CCC(N)CC3)nc12 [Compound 138] | < 0.1 µM | 0.1 to 1 µM | < 1 µM | 0.1 to 1 µM | < 1 µM | A (A=greater than 200 fold) | B (B=less than 200 fold, but greater than 20 fold) | C (C=less than 20 fold) | < 0.1 µM | – |
| CC(C)c1cnn2c(NCc3ccccc3-n3cc4cccc(NC(=O)CCCN(C)C)c4n3)nc(N3CCC(N)CC3)nc12 [Compound 126] | 0.1 to 1 µM | > 1 µM | < 1 µM | 0.1 to 1 µM | < 1 µM | A (A=greater than 200 fold) | B (B=less than 200 fold, but greater than 20 fold) | B (B=less than 200 fold, but greater than 20 fold) | < 0.1 µM | – |
| CC(C)c1cnn2c(NCc3ccccc3-c3ccc4[nH]c(=O)[nH]c4c3)nc(N3CCC(N)CC3)nc12 [Compound 140] | < 0.1 µM | 0.1 to 1 µM | 1 to 10 µM | 0.1 to 1 µM | 1 to 10 µM | B (B=less than 200 fold, but greater than 20 fold) | B (B=less than 200 fold, but greater than 20 fold) | C (C=less than 20 fold) | < 0.1 µM | < 1 µM |
